Assay results as given in US20220281930A1, “COMPOSITIONS AND METHODS FOR THE TREATMENT OF PATHOLOGICAL PAIN AND ITCH” (DUKE UNIVERSITY, priority 2019, published 2022).

Assays:
[1] = test system: inflammatory pain, evoked by peripheral tissue injection of CFA; experiment: CFA inflammatory pain model; assay type: in vivo, mouse
Procedure: For pain-related behavior, mechanical allodynia was assessed with von Frey filaments (Ugo Basile, Italy). The mice were placed on a 5×5-mm wire-mesh grid floor in individual compartments to avoid visual stimulation and allowed to adapt for 0.5 h prior to the von Frey test. The von Frey filament was then applied to the middle of the plantar surface of the hind paw with 5 g force. The withdrawal responses following the hind paw stimulation were measured at least three times, and the mechanical allodynia, which was defined as an increase in the number of withdrawal responses to the stimulation, was compared. In addition, paws were stimulated with heat from underneath applied by an infrared beam (Hargreaves' test apparatus, IR level 40; Ugo Basile), and withdrawal latencies were recorded. […] Thus, in vivo, KP functions as an analgesic when administered systemically in injury-related pain models.

δ-cat = experiment: Nuclear transfer of transfected human δ-cat in N2a cells; assay type: cell-based, mouse
Text: Plasmid containing human δ-catenin (CTNND2, NM_001288717) open reading frame was obtained from GeneCopeia (EX-A4285-M02) and cloned into pCMV-ENTER vector (Origene PS100001). Site-directed mutagenesis using Phusion DNA Polymerase enzyme (Thermofisher F549L) in conjunction with complementary primers bearing the specific mutation were used to generate the S276A […] mutation S276A. PCR was followed by Dpn1 enzyme digestion to remove parental plasmid DNA. All constructs were verified by sequencing. pCS-CMV-tdTomato plasmid was obtained from Addgene (cat. #30530).
To investigate the relevance of δ-cat residue S276, N2a neural cells were studied because these cells transfect at higher efficiency than primary cortical neurons. In our cultures, N2a cells expressed neuronal ßIII-tubulin in elongated processes as determined by immune-labeling as an indicator of their neuronal differentiation. […] This increase in nuclear transfer was very similar to the trafficking we recorded in primary cortical neurons, thus validating the cell line. […] Of note, there was no increase of nuclear transfer of δ-cat(S276A) upon KP treatment (FIG. 8C and FIG. 8D).

N2a cultured cells = experiment: Neuronalization of N2a cultured cells; assay type: cell-based, mouse; details: KP 0.2 μM for 3 days
[2] = test system: beta-cat binding to KCC2 promoter; experiment: ChIP with anti-beta-cat antibody at KCC2 promoter; assay type: cell-based, rat; details: KP-treated vs vehicle
Procedure: ChIP assay was carried out as described previously (Yeo et al., 2009, J Neurosci 29:14652-14662; Yeo et al., 2013, Proc Natl Acad Sci USA 110:4315-4320). Primary cortical neurons (0.7×10^6) were used for each ChIP experiment. Cells were crosslinked with 1% formaldehyde for 30 min, washed twice with cold PBS, resuspended in lysis buffer [1% SDS, 10 mm EDTA, and 50 mm Tris-HCl, pH 8.0, with protease inhibitor cocktail (Roche)], and sonicated for 15 s pulses. The lysates were clarified by centrifugation at 10,000 rpm for 10 min at 4° C. in a microcentrifuge. One-tenth of the total lysate was used as input control of genomic DNA. Supernatants were collected and diluted in buffer (1% Triton X-100, 2 mm EDTA, 150 mm NaCl, 20 mm Tris-HCl, pH 8.0, and protease inhibitor cocktail) followed by immunoclearing with 1 mg of salmon sperm DNA, 10 ml of rabbit IgG, and 20 ml of protein A/G-Sepharose (Santa Cruz Biotechnology) for 1 h at 4° C. Immunoprecipitation was performed overnight at 4° C. with 2 mg of each specific antibody. Precipitates were washed sequentially for 10 min each in TSE1 buffer (0.1% SDS, 1% Triton X-100, 2 mm EDTA, 150 mm NaCl, and 20 mm Tris-HCl, pH 8.0), TSE2 (TSE1 with 500 mm NaCl), and TSE3 (0.25 m LiCl, 1% NP-40, 1% deoxycholate, 1 mm EDTA, and 10 mm Tris-HCl, pH 8.0). […]

[3] = test system: mouse KCC2 promoter constructs; experiment: KCC2 promoter luciferase reporter assay in N2a cells; assay type: cell-based; details: KP 400 nM
Text: A fragment of the mouse KCC2 gene promoter (position −2052 […]) was amplified from genomic DNA prepared from cultured mouse primary glial cells. A 2.5 kb PCR fragment was cloned into the pGL4.17-Basic Vector (Promega) to generate the KCC2 promoter reporter construct. TCF and Kaiso binding sites were identified in this fragment. Using wild-type construct pGL4.17-KCC2 as a template, site-directed mutagenesis using Phusion DNA Polymerase enzyme (Thermo Fisher F549L) in conjunction with complementary primers bearing the specific mutation were used to mutate the Kaiso and TCF DNA-binding sites. PCR was followed by Dpn1 enzyme digestion to remove parental plasmid DNA. All constructs were verified by sequencing.
N2a cells were grown to 90% confluency in 24-well dishes in 0.4 mL of medium (DMEM, 2% Fetal Bovine Serum, 2 mM glutamine, 1% Non-essential amino acids, and 1% Penicillin/Streptomycin). Cells were transiently transfected using TurboFect reagent (Thermo Fisher R0531), with 500 ng of the pGL4.17-constructs plus 20 ng of the control Renilla plasmid (Promega, E2231) to normalize for transfection efficiency. Twenty-four hours after transfection, luminescence was measured using the Dual-Luciferase® Reporter Assay System (Promega) in a microplate luminometer (Veritas, Turner Biosystems). Mutant promoters were compared to WT, and the response of the respective promoter to KP (400 nM) was measured. Three independent transfection experiments were carried out and LUC assays were done in triplicates for each transfection. RLU is expressed as firefly luciferase activity relative to Renilla LUC activity.
Promoter expression constructs were built with rationally-targeted deletions to interrogate the effects of the Kaiso- and TCF-binding sites on activity of the KCC2 promoter and to determine if this activity was regulated by KP. For ease of transfection, key to this method, N2a neural cells were again used. The 5′ and 3′ delta-cat Kaiso binding sites functioned in repressive and enhancing manners, respectively (FIG. 11D).

O=C1Cc2c([nH]c3ccc(Br)cc23)-c2ccccc2N1 [kenpaullone, 9-bromo-7,12-dihydro-indolo [3,2-d] [1]benzazepin-6(5H)-one]
sensitized withdrawal thresholds to mechanical cues ([1]; KP 10 and 30 mg/kg, no significant difference between doses): significantly less sensitive
thermal pain threshold ([1]; both low and high dose KP): significantly less sensitive only at day 7
nuclear transfer of δ-cat (δ-cat; cells transfected with δ-cat(S276A), KP treatment): had no effect
nuclear transfer of δ-cat (δ-cat; cells transfected with δ-cat(WT), KP vs vehicle): significantly enhances
neuronal differentiation (N2a cultured cells): increased process formation
binding of beta-cat to TCF site [2]: significantly increases binding
KCC2 promoter LUC activity ([3]; Kaiso1 deletion (ΔK1) construct): significantly enhanced further
KCC2 promoter LUC activity ([3]; TCF deletion constructs of FIG. 11C): did not increase
KCC2 promoter LUC activity ([3]; deletion of both Kaiso sites): non-responsiveness
KCC2 promoter LUC activity ([3]; triple-deletion of both Kaiso sites and TCF site): completely non-responsive
